Assay: PK of compound of Formula (Ia) after single subcutaneous dose of solution formulations in Wistar Han rats
Assay type: in vivo
Conditions: male, Wistar Han, rat, plasma, sc, 50 mg/kg, SC 50 mg/kg
Protocol: Formulations containing the compound of Formula (Ia), or a pharmaceutically acceptable salt thereof, were prepared as solutions and optionally administered subcutaneously or intramuscularly to rats, rabbits, and/or dogs.
A solution of about 400 mg/mL of the compound of Formula (Ia) having 19.14 w/w % water, 40.66 w/w % PEG 300, 35.20 w/w % of a sodium salt of a compound of Formula (Ia), and 5.00% ethanol was prepared. The solution was administered subcutaneously to male Wistar Han rats at a dose level of about 50 mg/kg and dose volume of 0.125 mL/kg and the pharmacokinetic (PK) profile was determined.
A solution of about 500 mg/mL of the compound of Formula (Ia) having 16.64 w/w % water, 35.36 w/w % PEG 300, 43.00 w/w % of a sodium salt of a compound of Formula (Ia), and 5.00% ethanol was prepared. The solution was administered subcutaneously to male Wistar Han rats at a dose level of about 50 mg/kg and dose volume of 0.1 mL/kg and the pharmacokinetic (PK) profile was determined.
A solution of about 400 mg/mL of the compound of Formula (Ia) having 17.00 w/w % water, 36.40 w/w % PEG 300, 35.20 w/w % of a sodium salt of a compound of Formula (Ia), 5.00 w/w % ethanol, and 6.40 w/w % poloxamer 188 was prepared. The solution was administered subcutaneously to male beagle dogs at a dose level of about 12 mg/kg and male Wistar Han rats at a dose level of about 50 mg/kg. The pharmacokinetic profiles were determined, and the results for dogs are summarized in Table and Table, while the results for rats are summarized in Table and Table below.
A solution of about 500 mg/mL of the compound of Formula (Ia) having 14.06 w/w % water, 30.12 w/w % PEG 300, […] of a sodium salt of a compound of Formula (Ia), 5.00 w/w % ethanol, and 6.40 w/w % poloxamer 188 was prepared. The solution was administered subcutaneously to male beagle dogs at a dose level of about 12 mg/kg and male Wistar Han rats at a dose level of about 50 mg/kg. The pharmacokinetic profiles were determined, and the results for dogs are summarized in Table and Table, while the results for rats are summarized in Table and Table below.
A solution of about 300 mg/mL of the compound of Formula (Ia) having 23.33 w/w % water, 48.99 w/w % PEG 300, 26.47 w/w % of a sodium salt of a compound of Formula (Ia), and 1.21 w/w % poloxamer 188 was prepared. The solution was administered subcutaneously to male beagle dogs at a dose level of about 6 mg/kg and male Wistar Han rats at a dose level of about 50 mg/kg. The pharmacokinetic profiles were determined, and the results for dogs are summarized in Table and Table, while the results for rats are summarized in Table and Table below.
A solution of about 400 mg/mL of the compound of Formula (Ia) having 18.80 w/w % water, 40.25 w/w % PEG 300, 34.38 w/w % of a sodium salt of a compound of Formula (Ia), 5.00 w/w % ethanol, and 1.57 w/w % poloxamer 188 was prepared. The solution was administered subcutaneously to male beagle dogs at a dose level of about 12 mg/kg and male Wistar Han rats at a dose level of about 50 mg/kg. The pharmacokinetic profiles were determined, and the results for dogs are summarized in Table and Table, while the results for rats are summarized in Table and Table below.
A solution of about 500 mg/mL of the compound of Formula (Ia) having 16.29 w/w % water, 34.88 w/w % PEG 300, 41.92 w/w % of a sodium salt of a compound of Formula (Ia), 5.00 w/w % ethanol, and 1.91 w/w % poloxamer 188 was prepared. The solution was administered subcutaneously to male beagle dogs at a dose level of about 12 mg/kg and male Wistar Han rats at a dose level of about 50 mg/kg. The pharmacokinetic profiles were determined, and the results for dogs are summarized in Table and Table, while the results for rats are summarized in Table and Table below.
A solution of about 400 mg/mL of the compound of Formula (Ia) having 20.90 w/w % water, 44.72 w/w % PEG 300, and 34.38 w/w % of a sodium salt of a compound of Formula (Ia) was prepared. […]

[1] = individual rats, solution T, 400 mg/mL
[2] = individual rats, solution U, 500 mg/mL
[3] = individual rats, solution V, 300 mg/mL
[4] = mean, n = 3 rats, solution R, 400 mg/mL
[5] = mean, n = 3 rats, solution S, 500 mg/mL
[6] = mean, n = 3 rats, solution V, 300 mg/mL
[7] = mean, n = 5 rats, solution T, 400 mg/mL
[8] = mean, n = 5 rats, solution U, 500 mg/mL
[9] = individual rats, solution R, 400 mg/mL
[10] = individual rats, solution S, 500 mg/mL

Work on `CC(C)(C#Cc1ccc(-c2ccc(Cl)c3c(NS(C)(=O)=O)nn(CC(F)(F)F)c23)c([C@H](Cc2cc(F)cc(F)c2)NC(=O)Cn2nc(C(F)(F)F)c3c2C(F)(F)[C@@H]2C[C@H]32)n1)S(C)(=O)=O` [compound of Formula (Ia)] yielded a concentration at 8 h [1] of 294 nM, a concentration at 8 h [2] of 176 nM and a concentration at 8 h [3] of 170 nM. It also gave a concentration at 8 h [4] of 112 nM, a concentration at 8 h [5] of 100 nM and a concentration at 8 h [6] of 155 nM. The concentration at 8 h [7] was 211 nM, the concentration at 8 h [8] was 142 nM and the concentration at 24 h [9] was 167 nM. It also gave a concentration at 24 h [10] of 111 nM, a concentration at 24 h [2] of 300 nM and a concentration at 24 h [3] of 222 nM. For the same compound, the concentration at 24 h [4] was 162 nM, the concentration at 24 h [5] was 127 nM and the concentration at 24 h [6] was 193 nM. It also gave a concentration at 24 h [7] of 339 nM, a concentration at 24 h [8] of 224 nM and a concentration at 48 h [9] of 184 nM. For the same compound, the concentration at 48 h [10] was 92.6 nM, the concentration at 48 h [3] was 265 nM and the concentration at 48 h [4] was 151 nM. The concentration at 48 h [5] was 123 nM, the concentration at 48 h [6] was 197 nM and the concentration at 48 h [7] was 307 nM. The concentration at 48 h [8] was 211 nM, the concentration at 72 h [9] was 168 nM and the concentration at 72 h [10] was 95.8 nM. The concentration at 72 h [1] was 353 nM, the concentration at 72 h [3] was 187 nM and the concentration at 72 h [4] was 148 nM. It also gave a concentration at 72 h [5] of 127 nM, a concentration at 72 h [6] of 148 nM and a concentration at 72 h [7] of 247 nM. It also gave a concentration at 72 h [8] of 197 nM, a concentration at 96 h [9] of 181 nM and a concentration at 96 h [10] of 105 nM. The concentration at 96 h [2] was 230 nM, the concentration at 96 h [3] was 164 nM and the concentration at 96 h [4] was 152 nM. It also gave a concentration at 96 h [5] of 120 nM, a concentration at 96 h [6] of 136 nM and a concentration at 96 h [7] of 240 nM. For the same compound, the concentration at 96 h [8] was 167 nM, the concentration at 168 h [9] was 191 nM and the concentration at 168 h [10] was 123 nM. It also gave a concentration at 168 h [3] of 100 nM, a concentration at 168 h [4] of 160 nM and a concentration at 168 h [5] of 109 nM. It also gave a concentration at 168 h [6] of 104 nM, a concentration at 168 h [7] of 173 nM and a concentration at 168 h [8] of 154 nM. It also gave a concentration at 336 h [9] of 251 nM, a concentration at 336 h [3] of 194 nM and a concentration at 336 h [4] of 261 nM. The concentration at 336 h [5] was 183 nM, the concentration at 336 h [6] was 201 nM and the concentration at 336 h [7] was 254 nM. The concentration at 336 h [8] was 244 nM, the concentration at 504 h [9] was 348 nM and the concentration at 504 h [10] was 415 nM. The concentration at 504 h [3] was 241 nM, the concentration at 504 h [4] was 353 nM and the concentration at 504 h [5] was 287 nM. For the same compound, the concentration at 504 h [6] was 265 nM, the concentration at 504 h [7] was 301 nM and the concentration at 504 h [8] was 303 nM. For the same compound, the concentration at 672 h [9] was 290 nM, the concentration at 672 h [10] was 407 nM and the concentration at 672 h [3] was 274 nM.
